What was measured:
Type in all cases: in vivo, Cynomolgus monkeys
[1] = Body weight in monkeys, 2 mg/kg 30-min IV infusion
Protocol: (§1) TH 3423 and TH 3424 were tested in […] naïve monkeys (1 male and one female for each compound at 2 mg/kg) with 30-min intravenous infusion, TK sampling: on Day 1 and Day 15: 0.25, 0.5, 0.75, 1 and 2 hr post infusion initiation. Serum chemistry and hematology: pre-dose (Day 1), day 5, day 8 (pre-dose), day 15 (pre-dose), day 22 and day 28. Clinical observation: Daily during the study, total 35 days. Food consumption: Daily during the study, total 35 days. Bodyweight measurement: Twice weekly for five weeks.

[2] = Plasma concentration and TK after 30-min IV infusion at 2 mg/kg; conditions: Cynomolgus, cynomolgus monkey, plasma, iv, 2 mg/kg
Protocol: as §1

[3] = Hematology in monkeys, 2 mg/kg 30-min IV infusion
Protocol: as §1

`C[C@H](OP(=O)(N1CC1)N1CC1)c1ccc([N+](=O)[O-])c(Oc2cccc(C(=O)N(C)C)c2)c1` (single isomer, unassigned) [TH3424] showed a body weight ([1]; Day 1, male) of 3.40, a body weight ([1]; Day 4, male) of 3.30 and a body weight ([1]; Day 8, Mean) of 3.20. For the same molecule, the AUC(0-inf) ([2]; both sexes, Mean) was 1460 ng·h/mL, the AUC(0-t) ([2]; both sexes, Mean) was 1460 ng·h/mL and the AUC(0-inf) ([2]; female) was 1200 ng·h/mL. The AUC(0-t) ([2]; female) was 1200 ng·h/mL, the AUC(0-inf) ([2]; male) was 1730 ng·h/mL and the AUC(0-t) ([2]; male) was 1720 ng·h/mL. The “% BASO” value ([3]; female, Day 1 (pre-dose)) was 0.1%, the “% EOS” value ([3]; female, Day 1 (pre-dose)) was 3.3% and the “% MONO” value ([3]; female, Day 1 (pre-dose)) was 0.9%. The “% NEUT” value ([3]; female, Day 1 (pre-dose)) was 72.8%, the HCT ([3]; female, Day 1 (pre-dose)) was 35.7% and the HGB ([3]; female, Day 1 (pre-dose)) was 118 g/L. The LYM ([3]; female, Day 1 (pre-dose)) was 22.9%, the MCH ([3]; female, Day 1 (pre-dose)) was 25.4 pg and the MCHC ([3]; female, Day 1 (pre-dose)) was 331 g/L. For the same molecule, the MCV ([3]; female, Day 1 (pre-dose)) was 76.8 fL, the MPV ([3]; female, Day 1 (pre-dose)) was 13 fL and the PCT ([3]; female, Day 1 (pre-dose)) was 0.277%. It also gave a PDW ([3]; female, Day 1 (pre-dose)) of 15.4, a PLT ([3]; female, Day 1 (pre-dose)) of 2.13e+11 L⁻¹ and an RBC ([3]; female, Day 1 (pre-dose)) of 4.65e+12 L⁻¹. The RDW-CV ([3]; female, Day 1 (pre-dose)) was 11.5%, the RDW-SD ([3]; female, Day 1 (pre-dose)) was 37.4 fL and the WBC ([3]; female, Day 1 (pre-dose)) was 1.164e+10 L⁻¹. It also gave an abs_basos ([3]; female, Day 1 (pre-dose)) of 1e+07 L⁻¹, an abs_eos ([3]; female, Day 1 (pre-dose)) of 3.9e+08 L⁻¹ and an abs_lymphs ([3]; female, Day 1 (pre-dose)) of 2.66e+09 L⁻¹. For the same molecule, the abs_monos ([3]; female, Day 1 (pre-dose)) was 1.1e+08 L⁻¹, the abs_neuts ([3]; female, Day 1 (pre-dose)) was 8.47e+09 L⁻¹ and the “% EOS” value ([3]; female, Day 8 (pre-dose)) was 1.50%. The “% MONO” value ([3]; female, Day 8 (pre-dose)) was 0.20%, the “% NEUT” value ([3]; female, Day 8 (pre-dose)) was 49.10% and the HCT ([3]; female, Day 8 (pre-dose)) was 39.30%. The HGB ([3]; female, Day 8 (pre-dose)) was 130.00 g/L, the LYM ([3]; female, Day 8 (pre-dose)) was 18.90% and the MCH ([3]; female, Day 8 (pre-dose)) was 25.30 pg. For the same molecule, the MCHC ([3]; female, Day 8 (pre-dose)) was 331.00 g/L, the MCV ([3]; female, Day 8 (pre-dose)) was 76.30 fL and the MPV ([3]; female, Day 8 (pre-dose)) was 12.80 fL. The PCT ([3]; female, Day 8 (pre-dose)) was 0.50%, the PDW ([3]; female, Day 8 (pre-dose)) was 15.50 and the PLT ([3]; female, Day 8 (pre-dose)) was 3.9e+11 L⁻¹. The RBC ([3]; female, Day 8 (pre-dose)) was 5.15e+12 L⁻¹, the RDW-CV ([3]; female, Day 8 (pre-dose)) was 11.20% and the RDW-SD ([3]; female, Day 8 (pre-dose)) was 36.20 fL. The WBC ([3]; female, Day 8 (pre-dose)) was 1.691e+10 L⁻¹, the abs_basos ([3]; female, Day 8 (pre-dose)) was 5.13e+09 L⁻¹ and the abs_eos ([3]; female, Day 8 (pre-dose)) was 2.6e+08 L⁻¹. For the same molecule, the abs_lymphs ([3]; female, Day 8 (pre-dose)) was 3.2e+09 L⁻¹, the abs_monos ([3]; female, Day 8 (pre-dose)) was 3e+07 L⁻¹ and the abs_neuts ([3]; female, Day 8 (pre-dose)) was 8.29e+09 L⁻¹. The “% BASO” value ([3]; female, Day 15 (pre-dose)) was 0.90%, the “% EOS” value ([3]; female, Day 15 (pre-dose)) was 1.70% and the “% MONO” value ([3]; female, Day 15 (pre-dose)) was 3.00%. For the same molecule, the “% NEUT” value ([3]; female, Day 15 (pre-dose)) was 80.8%, the HCT ([3]; female, Day 15 (pre-dose)) was 36.3% and the HGB ([3]; female, Day 15 (pre-dose)) was 125 g/L. It also gave an LYM ([3]; female, Day 15 (pre-dose)) of 13.60%, an MCH ([3]; female, Day 15 (pre-dose)) of 25.3 pg and an MCHC ([3]; female, Day 15 (pre-dose)) of 344 g/L. It also gave an MCV ([3]; female, Day 15 (pre-dose)) of 73.5 fL, an MPV ([3]; female, Day 15 (pre-dose)) of 12.5 fL and a PCT ([3]; female, Day 15 (pre-dose)) of 0.275%. It also gave a PDW ([3]; female, Day 15 (pre-dose)) of 16.2, a PLT ([3]; female, Day 15 (pre-dose)) of 2.21e+11 L⁻¹ and an RBC ([3]; female, Day 15 (pre-dose)) of 4.94e+12 L⁻¹. It also gave an RDW-CV ([3]; female, Day 15 (pre-dose)) of 11.0%, an RDW-SD ([3]; female, Day 15 (pre-dose)) of 34.1 fL and a WBC ([3]; female, Day 15 (pre-dose)) of 2.07e+10 L⁻¹. It also gave an abs_basos ([3]; female, Day 15 (pre-dose)) of 1.9e+08 L⁻¹, an abs_eos ([3]; female, Day 15 (pre-dose)) of 3.7e+08 L⁻¹ and an abs_lymphs ([3]; female, Day 15 (pre-dose)) of 2.8e+09 L⁻¹. The abs_monos ([3]; female, Day 15 (pre-dose)) was 6.2e+08 L⁻¹, the abs_neuts ([3]; female, Day 15 (pre-dose)) was 1.67e+10 L⁻¹ and the “% BASO” value ([3]; male, Day 1 (pre-dose)) was 0.0%. For the same molecule, the “% EOS” value ([3]; male, Day 1 (pre-dose)) was 2.6%, the “% MONO” value ([3]; male, Day 1 (pre-dose)) was 0.1% and the “% NEUT” value ([3]; male, Day 1 (pre-dose)) was 58.4%. The HCT ([3]; male, Day 1 (pre-dose)) was 34.9%, the HGB ([3]; male, Day 1 (pre-dose)) was 117 g/L and the LYM ([3]; male, Day 1 (pre-dose)) was 38.9%. For the same molecule, the MCH ([3]; male, Day 1 (pre-dose)) was 25.7 pg, the MCHC ([3]; male, Day 1 (pre-dose)) was 335 g/L and the MCV ([3]; male, Day 1 (pre-dose)) was 76.7 fL. The MPV ([3]; male, Day 1 (pre-dose)) was 11.1 fL, the PCT ([3]; male, Day 1 (pre-dose)) was 0.267% and the PDW ([3]; male, Day 1 (pre-dose)) was 15.5. The PLT ([3]; male, Day 1 (pre-dose)) was 2.4e+11 L⁻¹, the RBC ([3]; male, Day 1 (pre-dose)) was 4.55e+12 L⁻¹ and the RDW-CV ([3]; male, Day 1 (pre-dose)) was 11.8%. It also gave an RDW-SD ([3]; male, Day 1 (pre-dose)) of 38.1 fL, a WBC ([3]; male, Day 1 (pre-dose)) of 4.71e+09 L⁻¹ and an abs_basos ([3]; male, Day 1 (pre-dose)) of 0 L⁻¹. The abs_eos ([3]; male, Day 1 (pre-dose)) was 1.2e+08 L⁻¹, the abs_lymphs ([3]; male, Day 1 (pre-dose)) was 1.84e+09 L⁻¹ and the abs_monos ([3]; male, Day 1 (pre-dose)) was 0 L⁻¹. The abs_neuts ([3]; male, Day 1 (pre-dose)) was 2.75e+09 L⁻¹, the “% BASO” value ([3]; male, Day 8 (pre-dose)) was 5.30% and the “% EOS” value ([3]; male, Day 8 (pre-dose)) was 1.10%. The “% MONO” value ([3]; male, Day 8 (pre-dose)) was 13.10%, the “% NEUT” value ([3]; male, Day 8 (pre-dose)) was 34.60% and the HCT ([3]; male, Day 8 (pre-dose)) was 35.20%. It also gave an HGB ([3]; male, Day 8 (pre-dose)) of 117.00 g/L, an LYM ([3]; male, Day 8 (pre-dose)) of 45.90% and an MCH ([3]; male, Day 8 (pre-dose)) of 25.50 pg. For the same molecule, the MCHC ([3]; male, Day 8 (pre-dose)) was 332.00 g/L, the MCV ([3]; male, Day 8 (pre-dose)) was 76.70 fL and the MPV ([3]; male, Day 8 (pre-dose)) was 10.30 fL. For the same molecule, the PCT ([3]; male, Day 8 (pre-dose)) was 0.51%, the PDW ([3]; male, Day 8 (pre-dose)) was 15.30 and the PLT ([3]; male, Day 8 (pre-dose)) was 4.96e+11 L⁻¹. For the same molecule, the RBC ([3]; male, Day 8 (pre-dose)) was 4.59e+12 L⁻¹, the RDW-CV ([3]; male, Day 8 (pre-dose)) was 11.50% and the RDW-SD ([3]; male, Day 8 (pre-dose)) was 37.20 fL. It also gave a WBC ([3]; male, Day 8 (pre-dose)) of 9.15e+09 L⁻¹, an abs_basos ([3]; male, Day 8 (pre-dose)) of 4.9e+08 L⁻¹ and an abs_eos ([3]; male, Day 8 (pre-dose)) of 1e+08 L⁻¹. It also gave an abs_lymphs ([3]; male, Day 8 (pre-dose)) of 4.19e+09 L⁻¹, an abs_monos ([3]; male, Day 8 (pre-dose)) of 1.21e+09 L⁻¹ and an abs_neuts ([3]; male, Day 8 (pre-dose)) of 3.16e+09 L⁻¹. The “% BASO” value ([3]; male, Day 15 (pre-dose)) was 0.10%, the “% EOS” value ([3]; male, Day 15 (pre-dose)) was 3.10% and the “% MONO” value ([3]; male, Day 15 (pre-dose)) was 4.40%. For the same molecule, the “% NEUT” value ([3]; male, Day 15 (pre-dose)) was 65.7%, the HCT ([3]; male, Day 15 (pre-dose)) was 37.4% and the HGB ([3]; male, Day 15 (pre-dose)) was 127 g/L. The LYM ([3]; male, Day 15 (pre-dose)) was 26.70%, the MCH ([3]; male, Day 15 (pre-dose)) was 25.3 pg and the MCHC ([3]; male, Day 15 (pre-dose)) was 340 g/L. The MCV ([3]; male, Day 15 (pre-dose)) was 74.5 fL, the MPV ([3]; male, Day 15 (pre-dose)) was 9.5 fL and the PCT ([3]; male, Day 15 (pre-dose)) was 0.593%. It also gave a PDW ([3]; male, Day 15 (pre-dose)) of 15.4, a PLT ([3]; male, Day 15 (pre-dose)) of 6.23e+11 L⁻¹ and an RBC ([3]; male, Day 15 (pre-dose)) of 5.02e+12 L⁻¹. For the same molecule, the RDW-CV ([3]; male, Day 15 (pre-dose)) was 11.5%, the RDW-SD ([3]; male, Day 15 (pre-dose)) was 36.3 fL and the WBC ([3]; male, Day 15 (pre-dose)) was 1.326e+10 L⁻¹. It also gave an abs_basos ([3]; male, Day 15 (pre-dose)) of 2e+07 L⁻¹, an abs_eos ([3]; male, Day 15 (pre-dose)) of 4.1e+08 L⁻¹ and an abs_lymphs ([3]; male, Day 15 (pre-dose)) of 3.54e+09 L⁻¹. For the same molecule, the abs_monos ([3]; male, Day 15 (pre-dose)) was 5.9e+08 L⁻¹ and the abs_neuts ([3]; male, Day 15 (pre-dose)) was 8.7e+09 L⁻¹.
